As usually defined, the pIC50 is −log10 of the IC50, conventionally taken in molar units. A lower pIC50 goes with a large IC50.

This note sets out measurements from patent publication US9376429B2, “Sodium channel blockers, preparation method thereof and use thereof” (Daewoong Pharmaceutical Co., Ltd., priority 2012, dated 2016).

pIC50: −log10 of the molar value.

For the experiment, the target named is T1, sodium ion channel (Nav1.7) (Homo sapiens, UniProt Q15858).
T1 construct: host or cells: HEK293
T1 sequence (Q15858 whole entry): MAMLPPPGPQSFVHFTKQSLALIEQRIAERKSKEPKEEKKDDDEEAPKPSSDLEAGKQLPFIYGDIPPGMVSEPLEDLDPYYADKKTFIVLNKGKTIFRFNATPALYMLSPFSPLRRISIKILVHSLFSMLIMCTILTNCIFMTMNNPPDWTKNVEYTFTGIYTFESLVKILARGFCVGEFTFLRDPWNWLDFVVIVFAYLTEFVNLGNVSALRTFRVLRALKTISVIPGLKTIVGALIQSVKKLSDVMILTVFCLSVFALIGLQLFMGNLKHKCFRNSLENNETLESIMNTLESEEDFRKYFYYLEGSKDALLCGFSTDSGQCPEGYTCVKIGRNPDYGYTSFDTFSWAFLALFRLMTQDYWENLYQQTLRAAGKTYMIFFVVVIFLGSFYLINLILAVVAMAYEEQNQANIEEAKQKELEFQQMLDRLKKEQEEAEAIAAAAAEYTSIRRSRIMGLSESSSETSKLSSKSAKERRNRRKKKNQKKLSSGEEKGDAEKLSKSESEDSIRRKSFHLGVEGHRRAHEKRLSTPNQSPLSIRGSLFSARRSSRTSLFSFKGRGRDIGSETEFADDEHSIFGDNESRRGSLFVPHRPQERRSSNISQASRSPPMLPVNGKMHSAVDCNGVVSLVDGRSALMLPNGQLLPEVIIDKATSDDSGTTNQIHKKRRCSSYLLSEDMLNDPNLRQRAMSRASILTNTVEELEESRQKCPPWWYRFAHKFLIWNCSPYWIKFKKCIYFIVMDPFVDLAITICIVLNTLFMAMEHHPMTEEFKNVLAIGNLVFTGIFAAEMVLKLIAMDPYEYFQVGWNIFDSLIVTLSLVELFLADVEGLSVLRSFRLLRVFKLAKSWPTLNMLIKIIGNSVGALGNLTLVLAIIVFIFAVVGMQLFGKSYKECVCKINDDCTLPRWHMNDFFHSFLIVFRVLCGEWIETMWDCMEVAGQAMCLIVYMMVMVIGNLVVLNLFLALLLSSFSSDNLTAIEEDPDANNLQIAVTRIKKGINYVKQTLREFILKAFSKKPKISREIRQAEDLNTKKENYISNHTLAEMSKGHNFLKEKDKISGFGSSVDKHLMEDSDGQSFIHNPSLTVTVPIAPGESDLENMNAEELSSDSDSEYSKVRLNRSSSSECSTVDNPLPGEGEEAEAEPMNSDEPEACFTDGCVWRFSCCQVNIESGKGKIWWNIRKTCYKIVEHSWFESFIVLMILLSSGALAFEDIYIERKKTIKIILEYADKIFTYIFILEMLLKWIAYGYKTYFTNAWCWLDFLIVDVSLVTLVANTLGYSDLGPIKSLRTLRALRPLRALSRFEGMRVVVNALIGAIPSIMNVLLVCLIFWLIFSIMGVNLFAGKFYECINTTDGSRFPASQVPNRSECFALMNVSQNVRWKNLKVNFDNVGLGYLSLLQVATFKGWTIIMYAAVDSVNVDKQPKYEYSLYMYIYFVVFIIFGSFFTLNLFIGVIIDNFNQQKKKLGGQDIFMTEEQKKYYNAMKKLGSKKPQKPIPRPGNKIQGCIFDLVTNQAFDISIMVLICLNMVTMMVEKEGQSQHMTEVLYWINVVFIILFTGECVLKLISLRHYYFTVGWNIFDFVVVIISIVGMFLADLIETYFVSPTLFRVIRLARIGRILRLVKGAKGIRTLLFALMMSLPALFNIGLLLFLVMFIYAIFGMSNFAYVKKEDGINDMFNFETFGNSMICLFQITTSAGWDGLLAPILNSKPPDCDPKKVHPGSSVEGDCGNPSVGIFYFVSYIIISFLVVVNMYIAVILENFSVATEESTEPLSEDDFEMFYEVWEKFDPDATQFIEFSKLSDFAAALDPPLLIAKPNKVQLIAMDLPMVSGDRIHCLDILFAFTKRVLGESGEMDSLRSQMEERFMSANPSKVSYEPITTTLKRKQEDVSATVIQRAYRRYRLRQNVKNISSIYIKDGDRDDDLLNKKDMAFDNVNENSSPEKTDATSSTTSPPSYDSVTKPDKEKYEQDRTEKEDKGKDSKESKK
The experiment is described as follows: Blocking effect against sodium ion channel (Nav1.7), IonFlux16 auto patch clamp, hNav1.7 HEK293 cells. The conditions noted are these: peak current after 50 seconds treatment, eight concentrations. It is filed as cell-based. The method, then: In order to measure the activities of the inventive compounds as antagonists, an experiment on a blocking effect against the sodium ion channel (Nav1.7) was carried out as follows.
The hNav1.7 HEK293 cell line used was a cell line having a human sodium ion channel 1.7 gene (type IX voltage-gated sodium channel alpha subunit) in human embryonic kidney (HEK) 293 cells and was purchased from Millipore. The medium used was prepared by adding 1% 100×NEAA and 10% heat inactivated FBS to DMEM F-12 and adding 1% P/S as an antibiotic thereto. G-418 as a […] was added during subculture, and the hNav1.7 HEK293 cells were cultured to a confluence of about 80% in a T75 flask in a 5% CO2 incubator at 37° C. for 2 or 3 days and detached from the flask by treatment with 0.25% trypsin solution. Then, the cells were collected by centrifugation and used in the experiment.
The compounds prepared in the Examples of the present invention were dissolved in dimethyl sulfoxide (DMSO) and used in the experiment. 90 mM and 10 mM DMSO stock solutions were prepared from each of the compounds and diluted in an extracellular solution (4 mM KCl, 138 mM NaCl, 1 mM MgCl2, 1.8 mM CaCl2, 5.6 mM glucose, 10 mM HEPES, pH 7.45) at various concentrations so that the final concentration of each compound in DMSO was 0.3% or less.
To measure the sodium ion channel blocking effect, an IonFlux16 Auto patch clamp system (Fluxion, Inc.) and a plate for exclusive use were used. The cells were distributed in an extracellular solution (4 mM KCl, 138 mM NaCl, 1 mM MgCl2, 1.8 mM CaCl2, 5.6 mM glucose, 10 mM HEPES, pH 7.45), and then dispensed in the specified region of the plate, and each of the prepared compound samples was diluted at various concentrations, and then dispensed in the specified region of the plate.
Specifically, eight concentrations per compound were set, and percent inhibition was determined by calculating the percentage of inhibition of the peak current, generated after treating the cells with each concentration of the compound for 50 seconds, relative to the peak current generated before treatment with the compound, and the IC50 value was calculated using the Sigma plot program. In Table 2 below, the percent inhibition of Nav1.7 is rated as follows: […]
A general note: Patch clamp records ionic current or voltage across a cell membrane.
`O=S(=O)(Nc1nccs1)c1ccc(C(O)c2ccc(-c3cccnc3F)cc2-c2ccoc2)cc1` (centres unmarked) [Example 150, 4-((4-(2-fluoropyridin-3-yl)-2-(furan-3-yl)phenyl)(hydroxy)methyl)-N-(thiazol-2-yl)benzenesulfonamide] had a pIC50 below 7.00. The molecule `N#Cc1cc(S(=O)(=O)Nc2nccs2)ccc1Oc1cnc(-c2cccc(F)c2)cc1-c1cccnc1` [Example 50, 3-cyano-4-((6′-(3-fluorophenyl)-[3,4′-bipyridin]-3′-yl)oxy)-N-(thiazol-2-yl)benzenesulfonamide] gave a pIC50 above 7.30. As to `N#Cc1cc(S(=O)(=O)Nc2cscn2)ccc1Oc1cnc(-c2cccc(F)c2)cc1-c1cn[nH]c1` [Example 83, 3-cyano-4-((6-(3-fluorophenyl)-4-(1H-pyrazol-4-yl)pyridin-3-yl)oxy)-N-(thiazol-4-yl)benzenesulfonamide], the pIC50 was below 7.00. Next, `N#Cc1cc(S(=O)(=O)Nc2nccs2)ccc1Oc1ccc(-c2ccc(F)cc2)nc1-c1ccoc1` [Example 109, 3-cyano-4-((6-(4-fluorophenyl)-2-(furan-3-yl)pyridin-3-yl)oxy)-N-(thiazol-2-yl)benzenesulfonamide]: above 7.30.

On to `O=S(=O)(Nc1cscn1)c1cc(Cl)c(Oc2ccc(-c3ccc(F)nc3)nc2-c2ccoc2)cc1F` [Example 130, 5-chloro-2-fluoro-4-((6′-fluoro-6-(furan-3-yl)-[2,3′-bipyridin]-5-yl)oxy)-N-(thiazol-4-yl)benzenesulfonamide], for which the pIC50 was below 7.00. Molecule `O=S(=O)(Nc1cscn1)c1cc(F)c(Oc2cnc(-c3cccc(F)c3)cc2-c2cncnc2)cc1F` [Example 95, 2,5-difluoro-4-((6-(3-fluorophenyl)-4-(pyrimidin-5-yl)pyridin-3-yl)oxy)-N-(thiazol-4-yl)benzenesulfonamide] had a pIC50 below 7.00. Next, `N#Cc1cc(S(=O)(=O)Nc2nccs2)ccc1Oc1ccc(-c2ccc(F)nc2F)nc1-c1ccoc1` [Example 127, 3-cyano-4-((2′,6′-difluoro-6-(furan-3-yl)-[2,3′-bipyridin]-5-yl)oxy)-N-(thiazol-2-yl)benzenesulfonamide]: 7.00 to 7.29; `Cn1cc(-c2cc(-c3cccnc3F)ncc2Oc2cc(F)c(S(=O)(=O)Nc3cscn3)cc2Cl)cn1` [Example 69, 5-chloro-2-fluoro-4-((2′-fluoro-4-(1-methyl-1H-pyrazol-4-yl)-[2,3′-bipyridin]-5-yl)oxy)-N-(thiazol-4-yl)benzenesulfonamide 2,2,2-trifluoroacetate]: below 7.00; `O=S(=O)(Nc1nccs1)c1ccc(Oc2cnc(-c3cccnc3F)cc2-c2ccoc2)c(F)c1` [Example 47, 3-fluoro-4-((2′-fluoro-4-(furan-3-yl)-[2,3′-bipyridin]-5-yl)oxy)-N-(thiazol-2-yl)benzenesulfonamide]: below 7.00. `N#Cc1cc(S(=O)(=O)Nc2nccs2)ccc1Oc1ccc(-c2ccc(F)nc2)nc1-c1ccoc1` [Example 104, 3-cyano-4-((6′-fluoro-6-(furan-3-yl)-[2,3′-bipyridin]-5-yl)oxy)-N-(thiazol-2-yl)benzenesulfonamide] gave a pIC50 of 7.00 to 7.29. Next, `O=S(=O)(Nc1cscn1)c1cc(Cl)c(Oc2cnc(-c3cccc(F)c3)cc2-c2cncnc2)cc1F` [Example 76, 5-chloro-2-fluoro-4-((6-(3-fluorophenyl)-4-(pyrimidin-5-yl)pyridin-3-yl)oxy)-N-(thiazol-4-yl)benzenesulfonamide]: below 7.00; `Cn1cc(-c2ccc(Oc3ccc(S(=O)(=O)Nc4nccs4)cc3C#N)c(-c3ccnn3C)n2)cn1` [Example 120, 3-cyano-4-((6-(1-methyl-1H-pyrazol-4-yl)-2-(1-methyl-1H-pyrazol-5-yl)pyridin-3-yl)oxy)-N-(thiazol-2-yl)benzenesulfonamide]: below 7.00. The same measure for `N#Cc1cc(S(=O)(=O)Nc2nccs2)ccc1Oc1cnc(-c2cn[nH]c2)cc1-c1ccoc1` [Example 45, 3-cyano-4-((4-(furan-3-yl)-6-(1H-pyrazol-4-yl)pyridin-3-yl)oxy)-N-(thiazol-2-yl)benzenesulfonamide]: below 7.00; for `Cn1nccc1-c1cc(-c2ccoc2)ncc1Oc1ccc(S(=O)(=O)Nc2nccs2)cc1C#N` [Example 25, 3-cyano-4-((6-(furan-3-yl)-4-(1-methyl-1H-pyrazol-5-yl)pyridin-3-yl)oxy)-N-(thiazol-2-yl)benzenesulfonamide]: below 7.00.

`Cn1nccc1-c1nc(-c2ccc(F)nc2)ccc1Oc1ccc(S(=O)(=O)Nc2nccs2)cc1C#N` [Example 115, 3-cyano-4-((6′-fluoro-6-(1-methyl-1H-pyrazol-5-yl)-[2,3′-bipyridin]-5-yl)oxy)-N-(thiazol-2-yl)benzenesulfonamide] gave a pIC50 below 7.00. Next, `N#Cc1cc(S(=O)(=O)Nc2nccs2)ccc1Oc1cnc(-c2cccc(F)c2)cc1-c1ccoc1` [Example 5, 3-cyano-4-(6-(3-fluorophenyl)-4-(furan-3-yl)pyridin-3-yloxy)-N-(thiazol-2-yl)benzenesulfonamide]: above 7.30; `N#Cc1cc(S(=O)(=O)Nc2nccs2)ccc1Oc1cnc(-c2ccccc2)cc1-c1ccnc(Cl)c1Cl` [Example 36, 3-cyano-4-((2′,3′-dichloro-6-phenyl-[4,4′-bipyridin]-3-yl)oxy)-N-(thiazol-2-yl)benzenesulfonamide]: below 7.00. Next, `O=S(=O)(Nc1nccs1)c1ccc(C(O)c2ccc(-c3ccccc3F)cc2-c2ccoc2)cc1` (centres unmarked) [Example 152, 4-((2′-fluoro-3-(furan-3-yl)-[1,1′-biphenyl]-4-yl)(hydroxy)methyl)-N-(thiazol-2-yl)benzenesulfonamide]: below 7.00; `O=S(=O)(Nc1nccs1)c1ccc(C(O)c2ccc(-c3ccc(F)nc3)cc2-c2ccoc2)cc1` (centres unmarked) [Example 151, 4-((4-(6-fluoropyridin-3-yl)-2-(furan-3-yl)phenyl)(hydroxy)methyl)-N-(thiazol-2-yl)benzenesulfonamide]: below 7.00. `O=S(=O)(Nc1cscn1)c1cc(F)c(Oc2cnc(-c3ccc(F)c(F)c3)cc2-c2cccnc2)cc1F` [Example 88, 4-((6′-(3,4-difluorophenyl)-[3,4′-bipyridin]-3′-yl)oxy)-2,5-difluoro-N-(thiazol-4-yl)benzenesulfonamide] gave a pIC50 below 7.00. Next, `Cn1nccc1-c1cc(-c2ccsc2)ncc1Oc1ccc(S(=O)(=O)Nc2nccs2)cc1F` [Example 22, 3-fluoro-4-((4-(1-methyl-1H-pyrazol-5-yl)-6-(thiophen-3-yl)pyridin-3-yl)oxy)-N-(thiazol-2-yl)benzenesulfonamide]: 7.00 to 7.29; `Cn1nccc1-c1nc(-c2ccc(F)nc2)ccc1Oc1cc(F)c(S(=O)(=O)Nc2cscn2)cc1Cl` [Example 137, 5-chloro-2-fluoro-4-((6′-fluoro-6-(1-methyl-1H-pyrazol-5-yl)-[2,3′-bipyridin]-5-yl)oxy)-N-(thiazol-4-yl)benzenesulfonamide]: below 7.00; `N#Cc1cc(S(=O)(=O)Nc2nccs2)ccc1Oc1cnc(-c2ccccc2)cc1-c1csc(C2CC2)n1` [Example 43, 3-cyano-4-((4-(2-cyclopropylthiazol-4-yl)-6-phenylpyridin-3-yl)oxy)-N-(thiazol-2-yl)benzenesulfonamide]: below 7.00.
